From PubChem BioAssay (NCI)
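Method: 48-hour compound exposure of cells in 96-well plates, five concentrations, linear interpolation of endpoints. TGI denotes the concentration required for complete inhibition of growth.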

Legend:
Assay in all cases: NCI tumour cell line growth inhibition, 48 h
HCT-15 colon = system: HCT-15 colon
OVCAR-4 ovarian = system: OVCAR-4 ovarian
UACC-62 melanoma = system: UACC-62 melanoma
RPMI-8226 leukemia = system: RPMI-8226 leukemia
MOLT-4 leukemia = system: MOLT-4 leukemia
MDA-N = system: MDA-N
SF-268 CNS = system: SF-268 CNS
IGROV1 ovarian = system: IGROV1 ovarian
RXF 393 renal = system: RXF 393 renal
EKVX NSCLC = system: EKVX NSCLC
ACHN renal = system: ACHN renal
HS 578T breast = system: HS 578T breast
SK-MEL-5 melanoma = system: SK-MEL-5 melanoma
K-562 leukemia = system: K-562 leukemia
SK-MEL-28 melanoma = system: SK-MEL-28 melanoma
MALME-3M melanoma = system: MALME-3M melanoma
NCI-H460 lung = system: NCI-H460 lung
NCI-H522 lung = system: NCI-H522 lung

Cc1ccsc1/C=N/Nc1nncc2ccccc12
TGI (HCT-15 colon): > 100 µM | TGI (OVCAR-4 ovarian): > 100 µM | TGI (UACC-62 melanoma): > 100 µM | TGI (RPMI-8226 leukemia): > 100 µM | TGI (MOLT-4 leukemia): > 100 µM | TGI (MDA-N): > 100 µM | TGI (SF-268 CNS): > 100 µM | TGI (IGROV1 ovarian): > 100 µM | TGI (RXF 393 renal): > 100 µM | TGI (EKVX NSCLC): > 100 µM | TGI (ACHN renal): > 100 µM | TGI (HS 578T breast): > 100 µM | TGI (SK-MEL-5 melanoma): > 100 µM | TGI (K-562 leukemia): > 100 µM | TGI (SK-MEL-28 melanoma): > 100 µM

COc1c(O)c2c(=O)cc(OC)c3c4c(OC)cc(=O)c5c(O)c(OC)c6c(c(c1C(C(C)=O)C6C(C)O)c23)c54 (stereo unspecified)
TGI (HCT-15 colon): 2.25 µM | TGI (MALME-3M melanoma): 2.57 µM | TGI (NCI-H460 lung): 0.688 µM | TGI (UACC-62 melanoma): 1.01 µM | TGI (RPMI-8226 leukemia): 1.28 µM | TGI (MOLT-4 leukemia): 0.443 µM | TGI (MDA-N): 2.34 µM | TGI (SF-268 CNS): 3.92 µM | TGI (IGROV1 ovarian): 1 µM | TGI (EKVX NSCLC): 4.55 µM | TGI (ACHN renal): 1.09 µM | TGI (HS 578T breast): 1.81 µM | TGI (SK-MEL-28 melanoma): 3.3 µM | TGI (NCI-H522 lung): 0.634 µM

Cc1cn(C2CC(N)C(C(=O)O)O2)c(=O)[nH]c1=O (stereo unspecified)
TGI (HCT-15 colon): > 100 µM | TGI (MALME-3M melanoma): > 100 µM | TGI (OVCAR-4 ovarian): > 100 µM | TGI (NCI-H460 lung): > 100 µM | TGI (UACC-62 melanoma): > 100 µM | TGI (RPMI-8226 leukemia): > 100 µM | TGI (MOLT-4 leukemia): > 100 µM | TGI (MDA-N): > 100 µM | TGI (SF-268 CNS): > 100 µM | TGI (IGROV1 ovarian): > 100 µM | TGI (EKVX NSCLC): > 100 µM | TGI (ACHN renal): > 100 µM | TGI (HS 578T breast): > 100 µM | TGI (SK-MEL-5 melanoma): > 100 µM | TGI (K-562 leukemia): > 100 µM | TGI (NCI-H522 lung): > 100 µM

O=C(Nc1ccccc1F)c1cc2ccc(O)cc2oc1=Nc1cccc(C(F)(F)F)c1
TGI (HCT-15 colon): 10.9 µM | TGI (MALME-3M melanoma): 34.9 µM | TGI (OVCAR-4 ovarian): 12.9 µM | TGI (NCI-H460 lung): > 100 µM | TGI (UACC-62 melanoma): 21 µM | TGI (RPMI-8226 leukemia): > 100 µM | TGI (MOLT-4 leukemia): 67.8 µM | TGI (MDA-N): > 100 µM | TGI (SF-268 CNS): 13.2 µM | TGI (IGROV1 ovarian): 5.54 µM | TGI (EKVX NSCLC): 10.6 µM | TGI (ACHN renal): 19.4 µM | TGI (HS 578T breast): 7.75 µM | TGI (SK-MEL-5 melanoma): 4.91 µM | TGI (K-562 leukemia): > 100 µM | TGI (SK-MEL-28 melanoma): 40.7 µM | TGI (NCI-H522 lung): 18.7 µM

CCS(=O)(=O)CCn1cnc2c1c(=O)n(C)c(=O)n2C
TGI (HCT-15 colon): > 100 µM | TGI (OVCAR-4 ovarian): > 100 µM | TGI (NCI-H460 lung): > 100 µM | TGI (UACC-62 melanoma): > 100 µM | TGI (MOLT-4 leukemia): > 100 µM | TGI (MDA-N): > 100 µM | TGI (SF-268 CNS): > 100 µM | TGI (IGROV1 ovarian): > 100 µM | TGI (RXF 393 renal): > 100 µM | TGI (EKVX NSCLC): > 100 µM | TGI (ACHN renal): > 100 µM | TGI (HS 578T breast): > 100 µM | TGI (SK-MEL-5 melanoma): > 100 µM | TGI (K-562 leukemia): > 100 µM | TGI (SK-MEL-28 melanoma): > 100 µM | TGI (NCI-H522 lung): > 100 µM

CCOC(=O)c1cnc(-n2[nH]c3c(c2=O)CCCC3)[nH]c1=O
TGI (HCT-15 colon): > 100 µM | TGI (MALME-3M melanoma): > 100 µM | TGI (OVCAR-4 ovarian): > 100 µM | TGI (NCI-H460 lung): > 100 µM | TGI (UACC-62 melanoma): 95.4 µM | TGI (RPMI-8226 leukemia): > 100 µM | TGI (MOLT-4 leukemia): > 100 µM | TGI (MDA-N): > 100 µM | TGI (SF-268 CNS): > 100 µM | TGI (IGROV1 ovarian): > 100 µM | TGI (EKVX NSCLC): > 100 µM | TGI (ACHN renal): > 100 µM | TGI (HS 578T breast): > 100 µM | TGI (SK-MEL-5 melanoma): > 100 µM | TGI (K-562 leukemia): > 100 µM | TGI (SK-MEL-28 melanoma): > 100 µM | TGI (NCI-H522 lung): > 100 µM

CC(=O)OC1CC[C@]2(C)C3CC[C@@]4(C)C(CCC4[C@H](C)CCCC(C)C)[C@@H]3CCC2(Br)C1 (stereo partly specified)
TGI (HCT-15 colon): 33.2 µM | TGI (MALME-3M melanoma): 23.2 µM | TGI (OVCAR-4 ovarian): 24 µM | TGI (NCI-H460 lung): > 50 µM | TGI (UACC-62 melanoma): > 50 µM | TGI (MOLT-4 leukemia): 28 µM | TGI (MDA-N): > 50 µM | TGI (SF-268 CNS): 28.1 µM | TGI (IGROV1 ovarian): 29.7 µM | TGI (RXF 393 renal): 21.9 µM | TGI (EKVX NSCLC): > 50 µM | TGI (ACHN renal): 20.2 µM | TGI (HS 578T breast): 30.4 µM | TGI (K-562 leukemia): 35.2 µM | TGI (SK-MEL-28 melanoma): 16.2 µM | TGI (NCI-H522 lung): 29.1 µM

Cc1ccc(S(=O)(=O)N2CCCC2C(=O)O[C@H]2CC[C@H]3CC=C[C@H]32)cc1 (stereo partly specified)
TGI (MALME-3M melanoma): > 100 µM | TGI (OVCAR-4 ovarian): > 100 µM | TGI (NCI-H460 lung): 91.4 µM | TGI (UACC-62 melanoma): > 100 µM | TGI (RPMI-8226 leukemia): 77.7 µM | TGI (MOLT-4 leukemia): 33.4 µM | TGI (MDA-N): > 100 µM | TGI (SF-268 CNS): > 100 µM | TGI (IGROV1 ovarian): > 100 µM | TGI (EKVX NSCLC): > 100 µM | TGI (ACHN renal): > 31.6 µM | TGI (HS 578T breast): > 100 µM | TGI (SK-MEL-5 melanoma): 43.6 µM | TGI (K-562 leukemia): 78.9 µM | TGI (SK-MEL-28 melanoma): 96.7 µM

O=C(CCN1CCOCC1)Nc1ccc2sc3ccccc3c(=O)c2n1
TGI (HCT-15 colon): > 100 µM | TGI (MALME-3M melanoma): 85.2 µM | TGI (OVCAR-4 ovarian): > 100 µM | TGI (NCI-H460 lung): > 100 µM | TGI (UACC-62 melanoma): > 100 µM | TGI (RPMI-8226 leukemia): > 100 µM | TGI (MDA-N): > 100 µM | TGI (SF-268 CNS): > 100 µM | TGI (IGROV1 ovarian): > 100 µM | TGI (EKVX NSCLC): > 100 µM | TGI (ACHN renal): > 100 µM | TGI (HS 578T breast): > 100 µM | TGI (SK-MEL-5 melanoma): 82.5 µM | TGI (K-562 leukemia): > 100 µM | TGI (SK-MEL-28 melanoma): > 100 µM | TGI (NCI-H522 lung): 45.9 µM

Cc1cc(OCC(=O)N/N=C/C(Br)=C/c2ccccc2)nc(SCC(=O)N/N=C/C(Br)=C/c2ccccc2)n1
TGI (HCT-15 colon): > 100 µM | TGI (OVCAR-4 ovarian): > 100 µM | TGI (NCI-H460 lung): > 100 µM | TGI (UACC-62 melanoma): > 100 µM | TGI (RPMI-8226 leukemia): > 100 µM | TGI (MDA-N): > 100 µM | TGI (SF-268 CNS): > 100 µM | TGI (IGROV1 ovarian): > 100 µM | TGI (RXF 393 renal): > 100 µM | TGI (EKVX NSCLC): > 100 µM | TGI (ACHN renal): > 100 µM | TGI (HS 578T breast): > 100 µM | TGI (SK-MEL-5 melanoma): > 100 µM | TGI (K-562 leukemia): > 100 µM | TGI (SK-MEL-28 melanoma): > 100 µM | TGI (NCI-H522 lung): > 100 µM

C=CC[C@@H]1C(=O)[C@@]2(O[Si](C(C)C)(C(C)C)C(C)C)CC[C@@H]1C[C@H]2NC(=O)OCC(Cl)(Cl)Cl
TGI (HCT-15 colon): > 100 µM | TGI (OVCAR-4 ovarian): > 100 µM | TGI (NCI-H460 lung): > 100 µM | TGI (UACC-62 melanoma): > 100 µM | TGI (MOLT-4 leukemia): > 100 µM | TGI (MDA-N): > 100 µM | TGI (SF-268 CNS): > 100 µM | TGI (ACHN renal): > 100 µM | TGI (HS 578T breast): > 100 µM | TGI (SK-MEL-5 melanoma): > 100 µM | TGI (K-562 leukemia): > 100 µM | TGI (SK-MEL-28 melanoma): > 100 µM | TGI (NCI-H522 lung): 0.0356 µM

NC(N)=NCCCC(NC(=O)OCCCCCCn1ccc(N)nc1=O)C(=O)O (stereo unspecified)
TGI (HCT-15 colon): > 100 µM | TGI (OVCAR-4 ovarian): > 100 µM | TGI (NCI-H460 lung): > 100 µM | TGI (UACC-62 melanoma): > 100 µM | TGI (RPMI-8226 leukemia): > 100 µM | TGI (MOLT-4 leukemia): > 100 µM | TGI (MDA-N): > 100 µM | TGI (SF-268 CNS): > 100 µM | TGI (IGROV1 ovarian): > 100 µM | TGI (RXF 393 renal): > 100 µM | TGI (EKVX NSCLC): > 100 µM | TGI (ACHN renal): > 100 µM | TGI (HS 578T breast): > 100 µM | TGI (K-562 leukemia): > 100 µM | TGI (SK-MEL-28 melanoma): > 100 µM
